From PMC9516332 (Frontiers in Oncology, 2022)
Read-outs that look alike come from different tables or passages of the source.

System: 134 cancer cell lines
Assay: Cell viability assay (ATPlite, 72 hours), IC50 on cancer cell line panel

In the case of `CO[C@]1(C(=O)N[C@@H](C)c2ccc(-n3cc(F)cn3)nc2)CC[C@H](c2nc(C)cc(Nc3cc(C)[nH]n3)n2)CC1` [pralsetinib], the IC50 (Homo sapiens, MDA-MB-468, read-out: IC50 in cell proliferation assay, MDA-MB-468 cell line) is reported as 8.52 µM, the IC50 (Homo sapiens, MG-63, read-out: IC50 in cell proliferation assay, MG-63 cell line) is reported as 1.88 µM and the IC50 (Homo sapiens, MIA PaCa-2, read-out: IC50 in cell proliferation assay, MIA PaCa-2 cell line) is reported as 1.56 µM. For the same molecule, the IC50 (Homo sapiens, MKN-45, read-out: IC50 in cell proliferation assay, MKN45 cell line (MET amplification)) was over 31.6 µM, the IC50 (Homo sapiens, MOLM-13, read-out: IC50 in cell proliferation assay, MOLM-13 cell line (FLT3 ITD)) was 0.033 µM and the IC50 (Homo sapiens, MOLT-4, read-out: IC50 in cell proliferation assay, MOLT-4 cell line) was 9.35 µM. For the same molecule, the IC50 (Homo sapiens, MV4-11, read-out: IC50 in cell proliferation assay, MV4-11 cell line (FLT3 ITD)) was 0.087 µM, the IC50 (Homo sapiens, MeWo, read-out: IC50 in cell proliferation assay, MeWo cell line) was 6.97 µM and the IC50 (Homo sapiens, NCCIT, read-out: IC50 in cell proliferation assay, NCC-IT cell line) was 1.66 µM. It also gave an IC50 (Homo sapiens, NCI-H82, read-out: IC50 in cell proliferation assay, cell line NCI-H82) of 10.9 µM, an IC50 (Homo sapiens, NCI-H460, read-out: IC50 in cell proliferation assay, NCI-H460 cell line) of 9.4 µM and an IC50 (Homo sapiens, NCI-H661, read-out: IC50 in cell proliferation assay, NCI-H661 cell line) of 2.1 µM. The IC50 (Homo sapiens, NCI-H716, read-out: IC50 in cell proliferation assay, cell line NCI-H716 (FGFR2-COL14A1)) was 0.244 µM, the IC50 (Homo sapiens, NCI-H1650, read-out: IC50 in cell proliferation assay, NCI-H1650 cell line (EGFR exon19del)) was 2.56 µM and the IC50 (Homo sapiens, NCI-H1975, read-out: IC50 in cell proliferation assay, NCI-H1975 cell line (EGFR p.L858R + p.T790M)) was 6.51 µM. It also gave an IC50 (Homo sapiens, NCI-H2228, read-out: IC50 in cell proliferation assay, NCI-H2228 cell line (EML4-ALK)) of 7.94 µM, an IC50 (Homo sapiens, OVCAR-3, read-out: IC50 in cell proliferation assay, cell line OVCAR-3) of 4.11 µM and an IC50 (Homo sapiens, PFSK-1, read-out: IC50 in cell proliferation assay, cell line PFSK-1) of 16.7 µM. The IC50 (Homo sapiens, RL95-2, read-out: IC50 in cell proliferation assay, cell line RL95-2 (EGFR p.A289V)) was 1.39 µM, the IC50 (Homo sapiens, RPMI-7951, read-out: IC50 in cell proliferation assay, cell line RPMI-7951 (BRAF p.V600E)) was 2.79 µM and the IC50 (Homo sapiens, RS4-11, read-out: IC50 in cell proliferation assay, cell line RS4;11) was 14.7 µM. The IC50 (Homo sapiens, Rec1, read-out: IC50 in cell proliferation assay, cell line REC-1) was 6.58 µM, the IC50 (Homo sapiens, SHP77, read-out: IC50 in cell proliferation assay, cell line SHP-77) was over 31.6 µM and the IC50 (Homo sapiens, SK-BR-3, read-out: IC50 in cell proliferation assay, cell line SK-BR-3 (ERBB2 amplification)) was 3.88 µM. It also gave an IC50 (Homo sapiens, SK-N-AS, read-out: IC50 in cell proliferation assay, cell line SK-N-AS) of 4.65 µM, an IC50 (Homo sapiens, SK-N-FI, read-out: IC50 in cell proliferation assay, cell line SK-N-FI) of 4.14 µM and an IC50 (Homo sapiens, SK-N-MC, read-out: IC50 in cell proliferation assay, cell line SK-N-MC) of 10.4 µM. The IC50 (Homo sapiens, SK-N-SH, read-out: IC50 in cell proliferation assay, cell line SK-N-SH (ALK p.F1174L)) was 1.65 µM, the IC50 (Homo sapiens, SNU-5, read-out: IC50 in cell proliferation assay, cell line SNU-5 (MET amplification)) was over 31.6 µM and the IC50 (Homo sapiens, SNU-16, read-out: IC50 in cell proliferation assay, cell line SNU-16 (FGFR2 amplification)) was 0.135 µM. It also gave an IC50 (Homo sapiens, SNU-C2B, read-out: IC50 in cell proliferation assay, cell line SNU-C2B (EGFR p.R165Q)) of 19.6 µM, an IC50 (Homo sapiens, SU-DHL-1, read-out: IC50 in cell proliferation assay, cell line SU-DHL-1 (NPM1-ALK)) of 11.4 µM and an IC50 (Homo sapiens, SU-DHL-6, read-out: IC50 in cell proliferation assay, cell line SU-DHL-6) of 1.93 µM. For the same molecule, the IC50 (Homo sapiens, SUP-T1, read-out: IC50 in cell proliferation assay, cell line SUP-T1) was 30.7 µM, the IC50 (Homo sapiens, SW48, read-out: IC50 in cell proliferation assay, cell line SW48 (EGFR p.G719S)) was 4.57 µM and the IC50 (Homo sapiens, SW480, read-out: IC50 in cell proliferation assay, cell line SW480) was 15.4 µM. It also gave an IC50 (Homo sapiens, SW626, read-out: IC50 in cell proliferation assay, cell line SW626) of 9.63 µM, an IC50 (Homo sapiens, SW780, read-out: IC50 in cell proliferation assay, cell line SW780 (FGFR3-BAIAP2L1)) of 1.41 µM and an IC50 (Homo sapiens, SW837, read-out: IC50 in cell proliferation assay, cell line SW837) of 12.9 µM. It also gave an IC50 (Homo sapiens, SW872, read-out: IC50 in cell proliferation assay, cell line SW872 (BRAF p.V600E)) of 5.58 µM, an IC50 (Homo sapiens, SW900, read-out: IC50 in cell proliferation assay, cell line SW900) of 5.11 µM and an IC50 (Homo sapiens, SW948, read-out: IC50 in cell proliferation assay, cell line SW948) of 15.1 µM. It also gave an IC50 (Homo sapiens, SW982, read-out: IC50 in cell proliferation assay, cell line SW982 (BRAF p.V600E)) of 1.61 µM, an IC50 (Homo sapiens, SW-620, read-out: IC50 in cell proliferation assay, cell line SW620) of 2.46 µM and an IC50 (Homo sapiens, T98G, read-out: IC50 in cell proliferation assay, cell line T98G) of 0.785 µM. The IC50 (Homo sapiens, TCC-SUP, read-out: IC50 in cell proliferation assay, cell line TCCSUP) was 5.55 µM, the IC50 (Homo sapiens, THP-1, read-out: IC50 in cell proliferation assay, cell line THP-1) was over 31.6 µM and the IC50 (Homo sapiens, U2OS, read-out: IC50 in cell proliferation assay, cell line U2OS) was 2.67 µM. For the same molecule, the IC50 (Homo sapiens, U-87 MG, read-out: IC50 in cell proliferation assay, cell line U-87MG ATCC) was 20.8 µM, the IC50 (Homo sapiens, U-118-MG, read-out: IC50 in cell proliferation assay, cell line U-118MG) was 2.78 µM and the IC50 (Homo sapiens, UMUC3, read-out: IC50 in cell proliferation assay, cell line UM-UC-3) was 2.83 µM. The IC50 (Hs766T, read-out: IC50 in cell proliferation assay, Hs 766T cell line) was 3.3 µM, the IC50 (L-82, read-out: IC50 in cell proliferation assay, L-82 cell line (NPM1-ALK)) was 11.1 µM and the IC50 (Rh30, read-out: IC50 in cell proliferation assay, cell line Rh30) was 6.62 µM. It also gave an IC50 (read-out: IC50 in cell proliferation assay, 11-18 cell line (EGFR p.L858R)) of 2.07 µM, an IC50 (read-out: IC50 in cell proliferation assay, Hs 852.T cell line) of 10.8 µM and an IC50 (read-out: IC50 in cell proliferation assay, JAR cell line) of 5.16 µM. The IC50 (read-out: IC50 in cell proliferation assay, cell line 5637) was 4.55 µM, the IC50 (read-out: IC50 in cell proliferation assay, cell line A-388) was 2.11 µM and the IC50 (read-out: IC50 in cell proliferation assay, cell line DB) was 13.3 µM. It also gave an IC50 (read-out: IC50 in cell proliferation assay, cell line DEL (NPM1-ALK)) of 16.1 µM, an IC50 (read-out: IC50 in cell proliferation assay, cell line ES-2 (BRAF p.V600E)) of 7.67 µM and an IC50 (read-out: IC50 in cell proliferation assay, cell line PA-1) of 4.5 µM. It also gave an IC50 (read-out: IC50 in cell proliferation assay, cell line PC-3) of 6.08 µM, an IC50 (read-out: IC50 in cell proliferation assay, cell line RD) of 14.6 µM and an IC50 (read-out: IC50 in cell proliferation assay, cell line RKO (BRAF p.V600E)) of 11.3 µM. The IC50 (read-out: IC50 in cell proliferation assay, cell line RL) was 5.67 µM, the IC50 (read-out: IC50 in cell proliferation assay, cell line RT-4 (FGFR3-TACC3)) was 0.453 µM and the IC50 (read-out: IC50 in cell proliferation assay, cell line SR (NPM1-ALK)) was 8.14 µM. It also gave an IC50 (read-out: IC50 in cell proliferation assay, cell line T24) of 6.55 µM, an IC50 (read-out: IC50 in cell proliferation assay, cell line TT (RET p.C634W)) of 0.055 µM and an IC50 (read-out: IC50 in cell proliferation assay, cell line VA-ES-BJ) of 7.77 µM.
